Laboratory results from patent publication US6737383B1, “Herbicidal oxadiazolidines” (priority 1999, dated 2004).

How the values were obtained:
barnyardgrass = assay: Test A barnyardgrass; format: in vivo, Echinochloa crus-galli; conditions: 0 to 10 scale where 0 is no effect and 10 is complete control
Description: (§1) Seeds of barnyardgrass (Echinochloa crus-galli), crabgrass (Digitaria spp.), morningglory (Ipomoea spp.), and velvetleaf (Abutilon theophrasti) were planted into a sandy loam soil and treated preemergence by soil drench with test chemicals formulated in a non-phytotoxic solvent mixture which includes a surfactant At the same time, these crop and weed species were also treated postemergence sprayed to runoff, with test chemicals formulated in the same manner.
(§2) Plants ranged in height from two to eighteen cm and were in the one to two leaf stage for the postemergence treatment. Treated plants and untreated controls were maintained in a greenhouse for approximately eleven days, after which all treated plants were compared to untreated controls and visually evaluated for injury. Plant response ratings, summarized in Table A, are based on a 0 to 10 scale where 0 is no effect and 10 is complete control.

crabgrass [1] = assay: Test A crabgrass; format: in vivo, Digitaria spp.; conditions: 0 to 10 scale where 0 is no effect and 10 is complete control
Description: as §1, §2

velvetleaf [2] = assay: Test A velvetleaf; format: in vivo, Abutilon theophrasti; conditions: 0 to 10 scale where 0 is no effect and 10 is complete control
Description: as §1, §2

morningglory [3] = assay: Test A morningglory; format: in vivo, Ipomoea spp.; conditions: 0 to 10 scale where 0 is no effect and 10 is complete control
Procedure, shortened: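 Ratings came from visual comparison with untreated plants about eleven days after treatment, scored 0 for no effect through 10 for complete control. Both soil-drench preemergence and runoff-spray postemergence applications were made at the same time.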

purple nutsedge = assay: Test B pre/postemergence purple nutsedge; format: in vivo, Cyperus rotundus; conditions: Preemergence
Procedure, shortened: (§3)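 Herbicidal effect was estimated by eye on a ten-point control scale after plants spent twelve to sixteen days in a greenhouse following soil or foliar treatment. Foliar sprays targeted plants at one to four leaves; all doses were formulated in a non-phytotoxic solvent with surfactant.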

duck salad = assay: Test B flood test duck salad; format: in vivo, Heteranthera limosa
Procedure, shortened: (§4)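 Flood test on plants grown to the 2-leaf stage; treated plants kept in greenhouse twelve to sixteen days, then visually rated against controls on a 0 (no effect) to 10 (complete control) scale.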

rape = assay: Test B pre/postemergence rape; format: in vivo, Brassica napus; conditions: Preemergence
Procedure, shortened: as §3

soybean = assay: Test B pre/postemergence soybean; format: in vivo, Glycine max; conditions: Preemergence
Procedure, shortened: as §3

bamyardgrass = assay: Test B flood test barnyardgrass; format: in vivo, Echinochloa crus-galli
Procedure, shortened: as §4

crabgrass [4] = assay: Test B pre/postemergence crabgrass; format: in vivo, Digitaria sanguinalis; conditions: Preemergence
Procedure, shortened: as §3

morningglory [5] = assay: Test B pre/postemergence morningglory; format: in vivo, Ipomoea hederacea; conditions: Preemergence
Procedure, shortened: as §3

cocklebur = assay: Test B pre/postemergence cocklebur; format: in vivo, Xanthium strumarium; conditions: Preemergence
Procedure, shortened: as §3

velvetleaf [6] = assay: Test B pre/postemergence velvetleaf; format: in vivo, Abutilon theophrasti; conditions: Preemergence
Procedure, shortened: as §3

corn = assay: Test B pre/postemergence corn; format: in vivo, Zea mays; conditions: Preemergence
Procedure, shortened: as §3

giant foxtail = assay: Test B pre/postemergence giant foxtail; format: in vivo, Setaria faberii; conditions: Preemergence
Procedure, shortened: as §3

pigweed = assay: Test B pre/postemergence pigweed; format: in vivo, Amaranthus retroflexus; conditions: Preemergence
Procedure, shortened: as §3

rice = assay: Test B flood test rice; format: in vivo, Oryza sativa
Procedure, shortened: as §4

sugar beet = assay: Test B pre/postemergence sugar beet; format: in vivo, Beta vulgaris; conditions: Preemergence
Procedure, shortened: as §3

surinam grass = assay: Test B pre/postemergence surinam grass; format: in vivo, Brachiaria decumbens; conditions: Preemergence
Procedure, shortened: as §3

smallflower flatsedge = assay: Test B flood test smallflower flatsedge; format: in vivo, Cyperus difformis
Procedure, shortened: as §4

wild oat = assay: Test B pre/postemergence wild oat; format: in vivo, Avena fatua; conditions: Preemergence
Procedure, shortened: as §3

wheat = assay: Test B pre/postemergence wheat; format: in vivo, Triticum aestivum; conditions: Preemergence
Procedure, shortened: as §3

bedstraw = assay: Test B pre/postemergence bedstraw; format: in vivo, Galium aparine; conditions: Preemergence
Procedure, shortened: as §3

blackgrass = assay: Test B pre/postemergence blackgrass; format: in vivo, Alopecurus myosuroides; conditions: Preemergence
Procedure, shortened: as §3

[7] = Rate 62 g/ha, scale of 0 to 10 where 0 is no effect and 10 is complete control
[8] = Rate 250 g/ha, scale 0 (no effect) to 10 (complete control)
[9] = Pre-emergence, Rate 62 g/ha, scale 0 to 10, 0 is no effect, 10 is complete control
[10] = Rate 125 g/ha, Pre-emergence section (flood test species), scale 0 to 10, 0 no effect, 10 complete control
[11] = Rate 250 g/ha, Pre-emergence (flood test species), scale 0 to 10, 0 is no effect, 10 is complete control
[12] = Rate 500 g/ha, Pre-emergence section of Table B, 0 to 10 scale (0 no effect, 10 complete control)
[13] = Rate 125 g/ha, scale of 0 to 10 where 0 is no effect and 10 is complete control
[14] = Rate 500 g/ha, scale of 0 to 10 where 0 is no effect and 10 is complete control

## CC(C)N(C(=O)n1oc(=O)[nH]c1=O)c1ccc(Cl)cc1 [Compound 377]
barnyardgrass; Postemergence, Rate 1000 g/ha
  Plant response rating, Barnyardgrass: 0
barnyardgrass; Pre-emergence, Rate 2000 g/ha
  Plant response rating, Barnyardgrass: 0
Crabgrass [1]; Postemergence, Rate 1000 g/ha
  Plant response rating, Crabgrass: 0
Crabgrass [1]; Pre-emergence, Rate 2000 g/ha
  Plant response rating, Crabgrass: 0
Velvetleaf [2]; Postemergence, Rate 1000 g/ha
  Plant response rating, Velvetleaf: 0
Velvetleaf [2]; Pre-emergence, Rate 2000 g/ha
  Plant response rating, Velvetleaf: 0
Morningglory [3]; Postemergence, Rate 1000 g/ha
  Plant response rating, Morningglory: 0
Morningglory [3]; Pre-emergence, Rate 2000 g/ha
  Plant response rating, Morningglory: 0

## CC(C)N(C(=O)n1oc(=O)n(CC2=NOCC2)c1=O)c1ccccc1 [Compound 706]
Purple nutsedge; [7]
  Nutsedge plant response rating: 0
Purple nutsedge; [8]
  Nutsedge plant response rating: 0
Duck salad; [9]
  Ducksalad plant response rating: 0
Duck salad; [10]
  Ducksalad plant response rating: 0
Duck salad; [11]
  Ducksalad plant response rating: 0
Duck salad; [12]
  Ducksalad plant response rating: 0
rape; [7]
  Rape plant response rating: 0
rape; [13]
  Plant response rating, Rape: 0
rape; [8]
  Rape plant response rating: 3
soybean; [7]
  Soybean plant response rating: 0
soybean; [13]
  Plant response rating, Soybean: 0
soybean; [8]
  Soybean plant response rating: 0
bamyardgrass; [9]
  Barnyardgrass plant response rating: 0
bamyardgrass; [10]
  Barnyardgrass plant response rating: 0
bamyardgrass; [11]
  Barnyardgrass plant response rating: 0
bamyardgrass; [12]
  Barnyardgrass plant response rating: 0
Crabgrass [4]; [7]
  Crabgrass plant response rating: 5
Crabgrass [4]; [13]
  Plant response rating, Crabgrass: 5
Crabgrass [4]; [8]
  Crabgrass plant response rating: 8
Morningglory [5]; [7]
  Morningglory plant response rating: 1
Morningglory [5]; [13]
  Plant response rating, Morningglory: 1
Morningglory [5]; [8]
  Morningglory plant response rating: 1
cocklebur; [7]
  Cocklebur plant response rating: 0
cocklebur; [13]
  Plant response rating, Cocklebur: 0
cocklebur; [8]
  Cocklebur plant response rating: 0
cocklebur; [14]
  Plant response rating, Cocklebur: 0
Velvetleaf [6]; [7]
  Velvetleaf plant response rating: 0
Velvetleaf [6]; [13]
  Plant response rating, Velvetleaf: 1
Velvetleaf [6]; [8]
  Velvetleaf plant response rating: 5
corn; [7]
  Corn plant response rating: 0
corn; [13]
  Plant response rating, Corn: 0
corn; [8]
  Corn plant response rating: 0
Giant foxtail; [7]
  Giant foxtail plant response rating: 6
Giant foxtail; [13]
  Plant response rating, Giant foxtail: 6
Giant foxtail; [8]
  Giant foxtail plant response rating: 7
pigweed; [7]
  Redroot pigweed plant response rating: 8
pigweed; [13]
  Plant response rating, Redroot pigweed: 8
pigweed; [8]
  Redroot pigweed plant response rating: 10
rice; [9]
  Rice plant response rating: 0
rice; [10]
  Rice plant response rating: 0
rice; [11]
  Rice plant response rating: 0
rice; [12]
  Rice plant response rating: 0
Sugar beet; [7]
  Sugarbeets plant response rating: 0
Sugar beet; [13]
  Plant response rating, Sugarbeets: 4
Sugar beet; [8]
  Sugarbeets plant response rating: 4
Surinam grass; [7]
  B. signalgrass plant response rating: 2
Surinam grass; [13]
  Plant response rating, B. signalgrass: 8
Surinam grass; [8]
  B. signalgrass plant response rating: 8
Surinam grass; [14]
  Plant response rating, B. signalgrass: 10
Smallflower flatsedge; [9]
  S. Flatsedge plant response rating: 0
Smallflower flatsedge; [10]
  S. Flatsedge plant response rating: 0
Smallflower flatsedge; [11]
  S. Flatsedge plant response rating: 0
Smallflower flatsedge; [12]
  S. Flatsedge plant response rating: 0
Wild oat; [7]
  Wild oats plant response rating: 4
Wild oat; [13]
  Plant response rating, Wild oats: 7
Wild oat; [8]
  Wild oats plant response rating: 8
wheat; [7]
  Wheat plant response rating: 0
wheat; [13]
  Plant response rating, Wheat: 4
wheat; [8]
  Wheat plant response rating: 5
bedstraw; [7]
  Bedstraw plant response rating: 0
bedstraw; [13]
  Plant response rating, Bedstraw: 0
bedstraw; [8]
  Bedstraw plant response rating: 0
blackgrass; [7]
  Blackgrass plant response rating: 8
blackgrass; [13]
  Plant response rating, Blackgrass: 8
blackgrass; [8]
  Blackgrass plant response rating: 10
blackgrass; [14]
  Plant response rating, Blackgrass: 10
